Results taken from patent US11020398B2, “Amino-pyrrolopyrimidinone compounds and methods of use thereof” (ArQule, Inc., priority 2016, dated 2021).

Legend:
[1] = molecular target: full-length activated BTK (wildtype) (Homo sapiens (Human), UniProt Q06187); experiment: AlphaScreen assay, wild-type BTK; format: biochemical; details: for inhibition at 10 µM: read-out: BTK % @ 10 uM, @ 10 uM
Experimental: (§1) The activated BTK was frozen in 50 μl aliquots (125-150 μg/ml).
(§2) BTK activity was assayed using a PLCγ2-derived biotinylated peptide substrate (biotin-[…]-OH) and AlphaScreen™ (Amplified Luminescent Proximity Homogeneous Assay) technology. The extent of peptide phosphorylation was determined by using acceptor beads conjugated to phosphotyrosine antibody that recognized the phosphorylated peptide and donor beads conjugated to streptavidin that binds to the biotin on the peptide. Excitation of the donor beads converted ambient oxygen to excited singlet oxygen which when in close proximity to acceptor beads, reacted with acceptor beads resulting in signal amplification.
(§3) Test inhibitors and controls were prepared in 10% DMSO at 10-fold the desired final concentration and added to each well of a reaction plate (Corning 96-well half-area solid white nonbinding surface plate) in a volume of 2.5 μl. […] The plate was incubated for 120 min at room temperature and the reaction stopped by the addition of 10 μl stop/detection mixture containing 35 mM EDTA, 50 ug/ml AlphaScreen™ Streptavidin Donor beads (final concentration is 500 ng/well) and AlphaScreen™ Phospho-tyrosine (P-Tyr-100) Acceptor beads (final concentration is 500 ng/well) under green light conditions. The plate was incubated overnight at room temperature in the dark and the plates read on the BMG PolarStar Omega ([…], Gain=4000). Data were archived and analyzed with a 4-parameter fit to generate IC50 values using the CDD Vault from Collaborative Drug Discovery.

[2] = molecular target: full-length activated BTK mutant C481S (Homo sapiens (Human), UniProt Q06187, C481S); experiment: AlphaScreen assay, BTK mutant C481S; format: biochemical; details: for inhibition at 10 µM: read-out: BTK-C481S % @ 10 uM, @ 10 uM
Experimental: as §1, §2, §3

Sequence of full-length activated BTK (wildtype) (Q06187 whole entry): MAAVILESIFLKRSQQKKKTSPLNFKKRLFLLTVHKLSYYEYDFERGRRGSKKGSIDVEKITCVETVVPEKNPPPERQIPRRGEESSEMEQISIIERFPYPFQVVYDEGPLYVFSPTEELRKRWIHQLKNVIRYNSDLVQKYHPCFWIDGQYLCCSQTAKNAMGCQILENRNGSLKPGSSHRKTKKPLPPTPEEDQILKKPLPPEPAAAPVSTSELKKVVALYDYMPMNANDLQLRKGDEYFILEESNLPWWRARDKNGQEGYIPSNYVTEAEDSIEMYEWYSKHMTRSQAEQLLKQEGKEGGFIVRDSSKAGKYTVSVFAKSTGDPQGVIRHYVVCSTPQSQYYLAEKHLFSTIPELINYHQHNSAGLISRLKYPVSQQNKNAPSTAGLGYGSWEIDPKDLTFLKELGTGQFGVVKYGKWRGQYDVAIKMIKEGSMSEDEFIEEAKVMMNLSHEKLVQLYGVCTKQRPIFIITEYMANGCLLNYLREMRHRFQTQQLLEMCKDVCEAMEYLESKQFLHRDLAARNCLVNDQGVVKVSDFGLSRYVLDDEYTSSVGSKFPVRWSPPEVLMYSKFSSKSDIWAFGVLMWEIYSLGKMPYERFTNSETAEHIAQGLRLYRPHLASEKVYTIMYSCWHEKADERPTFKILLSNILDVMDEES
Sequence of full-length activated BTK mutant C481S (Q06187 whole entry C481S): as the sequence (Q06187 whole entry) above, with C481S counted along it

**Q.** With `O=C(c1ccc(C(=O)N2CCOCC2)cc1Cl)c1c[nH]c2ncnc(N[C@@H]3CC[C@@H](CO)OC3)c12` [Compound I-611, (3-chloro-4-(4-(((3R,6S)-6-(hydroxymethyl)tetrahydro-2H-pyran-3-yl)amino)-7H-pyrrolo[2,3-d]pyrimidine-5-carbonyl)phenyl)(morpholino) methanone] as the compound, how does the IC50 [1] read?
**A.** Its IC50 is 1140 nM.

**Q.** What about the IC50 [2] of the same compound?
**A.** The IC50 was 1510 nM.

**Q.** Which IC50 [1] does the source give for `O=C(NCCN1CCOCC1)c1ccc(Cl)c(C(=O)c2c[nH]c3ncnc(N[C@@H]4CC[C@@H](CO)OC4)c23)c1` [Compound I-626, 4-chloro-3-(4-(((3R,6S)-6-(hydroxymethyl)tetrahydro-2H-pyran-3-yl)amino)-7H-pyrrolo[2,3-d]pyrimidine-5-carbonyl)-N-(2-morpholinoethyl) benzamide] here?
**A.** Its IC50 is 164 nM.

**Q.** And the IC50 [2]?
**A.** Its IC50 is 757 nM.

**Q.** What does the source list for `C=CC(=O)N1CCCC(Nc2ncnc3[nH]cc(C(=O)c4ccc(Oc5ccccc5)cc4Cl)c23)C1` (racemic) [Compound I-321r, (racemic)-1-(3-((5-(2-chloro-4-phenoxybenzoyl)-7H-pyrrolo[2,3-d]pyrimidin-4-yl)amino)piperidin-1-yl)prop-2-en-1-one]?
**A.** IC50 [1]: 4.5 nM; IC50 [2]: 179 nM

**Q.** Which IC50 [1] does the source give for `O=C(Nc1ccccc1)c1ccc(Cl)c(C(=O)c2c[nH]c3ncnc(N[C@@H]4CC[C@@H](CO)OC4)c23)c1` [Compound I-631, 4-chloro-3-(4-(((3R,6S)-6-(hydroxymethyl)tetrahydro-2H-pyran-3-yl)amino)-7H-pyrrolo[2,3-d]pyrimidine-5-carbonyl)-N-phenylbenzamide] here?
**A.** The IC50 was 52.1 nM.

**Q.** And the IC50 [2]?
**A.** Its IC50 is 177 nM.

**Q.** Which IC50 [1] does the source give for `O=C(c1cc(C(=O)N2CCCCC2)ccc1Cl)c1c[nH]c2ncnc(N[C@@H]3CC[C@@H](CO)OC3)c12` [Compound I-623, (4-chloro-3-(4-(((3R,6S)-6-(hydroxymethyl)tetrahydro-2H-pyran-3-yl)amino)-7H-pyrrolo[2,3-d]pyrimidine-5-carbonyl)phenyl)(piperidin-1-yl)methanone] here?
**A.** The IC50 was 124 nM.

**Q.** And the IC50 [2]?
**A.** Its IC50 is 185 nM.

**Q.** For `O=C(c1cc(C(=O)N2CCN(c3ccccn3)CC2)ccc1Cl)c1c[nH]c2ncnc(N[C@@H]3CC[C@@H](CO)OC3)c12` [Compound I-627, (4-chloro-3-(4-(((3R,6S)-6-(hydroxymethyl)tetrahydro-2H-pyran-3-yl)amino)-7H-pyrrolo[2,3-d]pyrimidine-5-carbonyl)phenyl)(4-(pyridin-2-yl)piperazin-1-yl)methanone], which IC50 [1] is on record?
**A.** Its IC50 is 777 nM.

**Q.** And the IC50 [2]?
**A.** The IC50 was 664 nM.

**Q.** How did the IC50 [1] turn out when `C=CC(=O)N1CCCC1CNc1ncnc2[nH]cc(C(=O)c3ccc(Oc4ccccc4)cc3Cl)c12` (racemic) [Compound I-325r, (racemic)-1-(2-(((5-(2-chloro-4-phenoxybenzoyl)-7H-pyrrolo[2,3-d]pyrimidin-4-yl)amino)methyl)pyrrolidin-1-yl)prop-2-en-1-one] was run?
**A.** The IC50 was 0.98 nM.

**Q.** What about the IC50 [2] of the same compound?
**A.** The IC50 was 136 nM.

**Q.** Which IC50 [1] does the source give for `O=C(c1ccc(N2CC3(COC3)C2)cc1Cl)c1c[nH]c2ncnc(N[C@@H]3CC[C@@H](CO)OC3)c12` [Compound I-647, (2-chloro-4-(2-oxa-6-azaspiro[3.3]heptan-6-yl)phenyl)(4-(((3R,6S)-6-(hydroxymethyl)tetrahydro-2H-pyran-3-yl)amino)-7H-pyrrolo[2,3-d]pyrimidin-5-yl)methanone] here?
**A.** The IC50 was 1440 nM.

**Q.** What about the IC50 [2] of the same compound?
**A.** Its IC50 is 108 nM.

**Q.** How did the IC50 [1] turn out when `O=C(c1cc(NC(=O)C2CCOCC2)ccc1Cl)c1c[nH]c2ncnc(N[C@@H]3CC[C@@H](CO)OC3)c12` [Compound I-603, N-(4-chloro-3-(4-(((3R,6S)-6-(hydroxymethyl)tetrahydro-2H-pyran-3-yl)amino)-7H-pyrrolo[2,3-d]pyrimidine-5-carbonyl)phenyl)tetrahydro-2H-pyran-4-carboxamide] was run?
**A.** Its IC50 is 466 nM.

**Q.** What about the IC50 [2] of the same compound?
**A.** The IC50 was 1770 nM.

**Q.** `O=C(c1ccc(Oc2ccccc2)cc1Cl)c1c[nH]c2ncnc(NC[C@H]3CC[C@@H](CO)O3)c12` [Compound I-362e, (2-chloro-4-phenoxyphenyl)(4-((((2R,5S)-5-(hydroxymethyl)tetrahydrofuran-2-yl)methyl)amino)-7H-pyrrolo[2,3-d]pyrimidin-5-yl)methanone] was tested. Which IC50 [1] did it give?
**A.** Its IC50 is 35.6 nM.

**Q.** What about the IC50 [2] of the same compound?
**A.** Its IC50 is 44.5 nM.

**Q.** `O=C(c1ccc(Oc2ccccc2)cc1Cl)c1c[nH]c2ncnc(NC[C@H]3CCC[C@@H](CO)N3)c12` (racemic) [Compound I-359e, racemic-cis-(2-chloro-4-phenoxyphenyl)(4-(((6-(hydroxymethyl)piperidin-2-yl)methyl)amino)-7H-pyrrolo[2,3-d]pyrimidin-5-yl)methanone] was tested. Which IC50 [1] did it give?
**A.** The IC50 was 29.4 nM.

**Q.** And the IC50 [2]?
**A.** The IC50 was 124 nM.

**Q.** With `O=C(NCCN1CCOCC1)c1ccc(C(=O)c2c[nH]c3ncnc(N[C@@H]4CC[C@@H](CO)OC4)c23)c(Cl)c1` [Compound I-613, 3-chloro-4-(4-(((3R,6S)-6-(hydroxymethyl)tetrahydro-2H-pyran-3-yl)amino)-7H-pyrrolo[2,3-d]pyrimidine-5-carbonyl)-N-(2-morpholinoethyl) benzamide] as the compound, how does the inhibition at 10 µM [1] read?
**A.** Its inhibition at 10 µM is 87%.

**Q.** And the inhibition at 10 µM [2]?
**A.** The inhibition at 10 µM was 64%.

**Q.** How did the IC50 [1] turn out when `COCCOc1ccc(C(=O)c2c[nH]c3ncnc(N[C@@H]4CC[C@@H](CO)OC4)c23)c(Cl)c1` [Compound I-317i, (2-chloro-4-(2-methoxyethoxy)phenyl)(4-(((3R,6S)-6-(hydroxymethyl)tetrahydro-2H-pyran-3-yl)amino)-7H-pyrrolo[2,3-d]pyrimidin-5-yl)methanone] was run?
**A.** The IC50 was 40.7 nM.

**Q.** And the IC50 [2]?
**A.** The IC50 was 156 nM.

**Q.** Which results are given for `CS(=O)(=O)N1C[C@H](Nc2ncnc3[nH]cc(C(=O)c4ccc(Oc5ccccc5)cc4Cl)c23)C[C@H]1CO` [Compound I-656, (2-chloro-4-phenoxyphenyl)(4-(((3R,5S)-5-(hydroxymethyl)-1-(methylsulfonyl)pyrrolidin-3-yl)amino)-7H-pyrrolo[2,3-d]pyrimidin-5-yl)methanone]?
**A.** IC50 [1]: 123 nM; IC50 [2]: 254 nM

**Q.** Which inhibition at 10 µM [1] does the source give for `COCCNC(=O)c1cccc(C(=O)c2c[nH]c3ncnc(N[C@@H]4CC[C@@H](CO)OC4)c23)c1` [Compound I-637, 3-(4-(((3R,6S)-6-(hydroxymethyl)tetrahydro-2H-pyran-3-yl)amino)-7H-pyrrolo[2,3-d]pyrimidine-5-carbonyl)-N-(2-methoxyethyl)benzamide] here?
**A.** Its inhibition at 10 µM is 76%.

**Q.** And the inhibition at 10 µM [2]?
**A.** The inhibition at 10 µM was 55%.

**Q.** Which results are given for `CN1C[C@H](Nc2ncnc3[nH]cc(C(=O)c4ccc(Oc5ccccc5)cc4Cl)c23)C[C@H]1CO` [Compound I-342e, (2-chloro-4-phenoxyphenyl)(4-(((3R,5S)-5-(hydroxymethyl)-1-methylpyrrolidin-3-yl)amino)-7H-pyrrolo[2,3-d]pyrimidin-5-yl)methanone]?
**A.** IC50 [1]: 14.2 nM; IC50 [2]: 33.4 nM

**Q.** How did the IC50 [1] turn out when `CNC(=O)c1ccc(Oc2ccc(C(=O)c3c[nH]c4ncnc(N[C@@H]5CC[C@@H](CO)OC5)c34)c(Cl)c2)cn1` [Compound I-651, 5-(3-chloro-4-(4-(((3R,6S)-6-(hydroxymethyl)tetrahydro-2H-pyran-3-yl)amino)-7H-pyrrolo[2,3-d]pyrimidine-5-carbonyl)phenoxy)-N-methyl picolinamide] was run?
**A.** The IC50 was 332 nM.

**Q.** What about the IC50 [2] of the same compound?
**A.** Its IC50 is 230 nM.

**Q.** For `O=C(c1ccc(Oc2ccccc2)cc1Cl)c1c[nH]c2ncnc(NC3CCC(CO)NC3)c12` (racemic) [Compound I-343r, rac-(2-chloro-4-phenoxyphenyl)(4-((6-(hydroxymethyl)piperidin-3-yl)amino)-7H-pyrrolo[2,3-d]pyrimidin-5-yl)methanone], which IC50 [1] is on record?
**A.** The IC50 was 11 nM.

**Q.** What about the IC50 [2] of the same compound?
**A.** Its IC50 is 34 nM.

**Q.** For `N#Cc1cccc(NC(=O)c2ccc(Cl)c(C(=O)c3c[nH]c4ncnc(N[C@@H]5CC[C@@H](CO)OC5)c34)c2)c1` [Compound I-630, 4-chloro-N-(3-cyanophenyl)-3-(4-(((3R,6S)-6-(hydroxymethyl)tetrahydro-2H-pyran-3-yl)amino)-7H-pyrrolo[2,3-d]pyrimidine-5-carbonyl)benzamide], which IC50 [1] is on record?
**A.** The IC50 was 18.4 nM.

**Q.** And the IC50 [2]?
**A.** The IC50 was 189 nM.

**Q.** For `O=C(NCc1ccccc1)c1ccc(Cl)c(C(=O)c2c[nH]c3ncnc(N[C@@H]4CC[C@@H](CO)OC4)c23)c1` [Compound I-628, N-benzyl-4-chloro-3-(4-(((3R,6S)-6-(hydroxymethyl)tetrahydro-2H-pyran-3-yl)amino)-7H-pyrrolo[2,3-d]pyrimidine-5-carbonyl)benzamide], which IC50 [1] is on record?
**A.** The IC50 was 59.7 nM.

**Q.** And the IC50 [2]?
**A.** Its IC50 is 161 nM.

**Q.** Which results are given for `COCCOc1cccc(C(=O)c2c[nH]c3ncnc(N[C@@H]4CC[C@@H](CO)OC4)c23)c1` [Compound I-649, (4-(((3R,6S)-6-(hydroxymethyl)tetrahydro-2H-pyran-3-yl)amino)-7H-pyrrolo[2,3-d]pyrimidin-5-yl)(3-(2-methoxyethoxy)phenyl)methanone]?
**A.** IC50 [1]: 959 nM; inhibition at 10 µM [2]: 82%

**Q.** For `O=C(c1ccc(Oc2ccccc2)cc1Cl)c1c[nH]c2ncnc(N[C@H]3CN[C@H](CO)C3)c12` [Compound I-345e, (2-chloro-4-phenoxyphenyl)(4-(((3R,5S)-5-(hydroxymethyl)pyrrolidin-3-yl)amino)-7H-pyrrolo[2,3-d]pyrimidin-5-yl)methanone], which IC50 [1] is on record?
**A.** Its IC50 is 10.1 nM.

**Q.** What about the IC50 [2] of the same compound?
**A.** Its IC50 is 68.2 nM.

**Q.** Which IC50 [1] does the source give for `O=C(Nc1ccccc1)c1ccc(C(=O)c2c[nH]c3ncnc(N[C@@H]4CC[C@@H](CO)OC4)c23)cc1` [Compound I-231, 4-(4-(((3R,6S)-6-(hydroxymethyl)tetrahydro-2H-pyran-3-yl)amino)-7H-pyrrolo[2,3-d]pyrimidine-5-carbonyl)-N-phenylbenzamide] here?
**A.** Its IC50 is 318 nM.

**Q.** And the IC50 [2]?
**A.** The IC50 was 248 nM.
